Laboratory results reported in patent US6887712B1, “Methods and compositions to lower plasma cholesterol levels” (AtheroGenics, Inc., priority 1998, dated 2005).

What was measured:
plasma cholesterol = experiment: Plasma cholesterol lowering in hamsters; set-up: species or system hamster; conditions: ability to lower plasma cholesterol in vivo in hamsters, yes/no
Protocol: The monosuccinic acid ester of probucol and several other compounds were tested in vitro in the immunoreactivity cell-free assay described above in Example 3 and in vivo in hamsters for their ability to lower plasma cholesterol.

purified human LDL = biological target: T1, purified human LDL (Homo sapiens, UniProt P04114); experiment: Agarose electrophoresis of purified human LDL mixed with compound; type: binding
T1 construct: from tissue; host or cells: human LDL particles (plasma lipoprotein)
T1 sequence (P04114 28-4563): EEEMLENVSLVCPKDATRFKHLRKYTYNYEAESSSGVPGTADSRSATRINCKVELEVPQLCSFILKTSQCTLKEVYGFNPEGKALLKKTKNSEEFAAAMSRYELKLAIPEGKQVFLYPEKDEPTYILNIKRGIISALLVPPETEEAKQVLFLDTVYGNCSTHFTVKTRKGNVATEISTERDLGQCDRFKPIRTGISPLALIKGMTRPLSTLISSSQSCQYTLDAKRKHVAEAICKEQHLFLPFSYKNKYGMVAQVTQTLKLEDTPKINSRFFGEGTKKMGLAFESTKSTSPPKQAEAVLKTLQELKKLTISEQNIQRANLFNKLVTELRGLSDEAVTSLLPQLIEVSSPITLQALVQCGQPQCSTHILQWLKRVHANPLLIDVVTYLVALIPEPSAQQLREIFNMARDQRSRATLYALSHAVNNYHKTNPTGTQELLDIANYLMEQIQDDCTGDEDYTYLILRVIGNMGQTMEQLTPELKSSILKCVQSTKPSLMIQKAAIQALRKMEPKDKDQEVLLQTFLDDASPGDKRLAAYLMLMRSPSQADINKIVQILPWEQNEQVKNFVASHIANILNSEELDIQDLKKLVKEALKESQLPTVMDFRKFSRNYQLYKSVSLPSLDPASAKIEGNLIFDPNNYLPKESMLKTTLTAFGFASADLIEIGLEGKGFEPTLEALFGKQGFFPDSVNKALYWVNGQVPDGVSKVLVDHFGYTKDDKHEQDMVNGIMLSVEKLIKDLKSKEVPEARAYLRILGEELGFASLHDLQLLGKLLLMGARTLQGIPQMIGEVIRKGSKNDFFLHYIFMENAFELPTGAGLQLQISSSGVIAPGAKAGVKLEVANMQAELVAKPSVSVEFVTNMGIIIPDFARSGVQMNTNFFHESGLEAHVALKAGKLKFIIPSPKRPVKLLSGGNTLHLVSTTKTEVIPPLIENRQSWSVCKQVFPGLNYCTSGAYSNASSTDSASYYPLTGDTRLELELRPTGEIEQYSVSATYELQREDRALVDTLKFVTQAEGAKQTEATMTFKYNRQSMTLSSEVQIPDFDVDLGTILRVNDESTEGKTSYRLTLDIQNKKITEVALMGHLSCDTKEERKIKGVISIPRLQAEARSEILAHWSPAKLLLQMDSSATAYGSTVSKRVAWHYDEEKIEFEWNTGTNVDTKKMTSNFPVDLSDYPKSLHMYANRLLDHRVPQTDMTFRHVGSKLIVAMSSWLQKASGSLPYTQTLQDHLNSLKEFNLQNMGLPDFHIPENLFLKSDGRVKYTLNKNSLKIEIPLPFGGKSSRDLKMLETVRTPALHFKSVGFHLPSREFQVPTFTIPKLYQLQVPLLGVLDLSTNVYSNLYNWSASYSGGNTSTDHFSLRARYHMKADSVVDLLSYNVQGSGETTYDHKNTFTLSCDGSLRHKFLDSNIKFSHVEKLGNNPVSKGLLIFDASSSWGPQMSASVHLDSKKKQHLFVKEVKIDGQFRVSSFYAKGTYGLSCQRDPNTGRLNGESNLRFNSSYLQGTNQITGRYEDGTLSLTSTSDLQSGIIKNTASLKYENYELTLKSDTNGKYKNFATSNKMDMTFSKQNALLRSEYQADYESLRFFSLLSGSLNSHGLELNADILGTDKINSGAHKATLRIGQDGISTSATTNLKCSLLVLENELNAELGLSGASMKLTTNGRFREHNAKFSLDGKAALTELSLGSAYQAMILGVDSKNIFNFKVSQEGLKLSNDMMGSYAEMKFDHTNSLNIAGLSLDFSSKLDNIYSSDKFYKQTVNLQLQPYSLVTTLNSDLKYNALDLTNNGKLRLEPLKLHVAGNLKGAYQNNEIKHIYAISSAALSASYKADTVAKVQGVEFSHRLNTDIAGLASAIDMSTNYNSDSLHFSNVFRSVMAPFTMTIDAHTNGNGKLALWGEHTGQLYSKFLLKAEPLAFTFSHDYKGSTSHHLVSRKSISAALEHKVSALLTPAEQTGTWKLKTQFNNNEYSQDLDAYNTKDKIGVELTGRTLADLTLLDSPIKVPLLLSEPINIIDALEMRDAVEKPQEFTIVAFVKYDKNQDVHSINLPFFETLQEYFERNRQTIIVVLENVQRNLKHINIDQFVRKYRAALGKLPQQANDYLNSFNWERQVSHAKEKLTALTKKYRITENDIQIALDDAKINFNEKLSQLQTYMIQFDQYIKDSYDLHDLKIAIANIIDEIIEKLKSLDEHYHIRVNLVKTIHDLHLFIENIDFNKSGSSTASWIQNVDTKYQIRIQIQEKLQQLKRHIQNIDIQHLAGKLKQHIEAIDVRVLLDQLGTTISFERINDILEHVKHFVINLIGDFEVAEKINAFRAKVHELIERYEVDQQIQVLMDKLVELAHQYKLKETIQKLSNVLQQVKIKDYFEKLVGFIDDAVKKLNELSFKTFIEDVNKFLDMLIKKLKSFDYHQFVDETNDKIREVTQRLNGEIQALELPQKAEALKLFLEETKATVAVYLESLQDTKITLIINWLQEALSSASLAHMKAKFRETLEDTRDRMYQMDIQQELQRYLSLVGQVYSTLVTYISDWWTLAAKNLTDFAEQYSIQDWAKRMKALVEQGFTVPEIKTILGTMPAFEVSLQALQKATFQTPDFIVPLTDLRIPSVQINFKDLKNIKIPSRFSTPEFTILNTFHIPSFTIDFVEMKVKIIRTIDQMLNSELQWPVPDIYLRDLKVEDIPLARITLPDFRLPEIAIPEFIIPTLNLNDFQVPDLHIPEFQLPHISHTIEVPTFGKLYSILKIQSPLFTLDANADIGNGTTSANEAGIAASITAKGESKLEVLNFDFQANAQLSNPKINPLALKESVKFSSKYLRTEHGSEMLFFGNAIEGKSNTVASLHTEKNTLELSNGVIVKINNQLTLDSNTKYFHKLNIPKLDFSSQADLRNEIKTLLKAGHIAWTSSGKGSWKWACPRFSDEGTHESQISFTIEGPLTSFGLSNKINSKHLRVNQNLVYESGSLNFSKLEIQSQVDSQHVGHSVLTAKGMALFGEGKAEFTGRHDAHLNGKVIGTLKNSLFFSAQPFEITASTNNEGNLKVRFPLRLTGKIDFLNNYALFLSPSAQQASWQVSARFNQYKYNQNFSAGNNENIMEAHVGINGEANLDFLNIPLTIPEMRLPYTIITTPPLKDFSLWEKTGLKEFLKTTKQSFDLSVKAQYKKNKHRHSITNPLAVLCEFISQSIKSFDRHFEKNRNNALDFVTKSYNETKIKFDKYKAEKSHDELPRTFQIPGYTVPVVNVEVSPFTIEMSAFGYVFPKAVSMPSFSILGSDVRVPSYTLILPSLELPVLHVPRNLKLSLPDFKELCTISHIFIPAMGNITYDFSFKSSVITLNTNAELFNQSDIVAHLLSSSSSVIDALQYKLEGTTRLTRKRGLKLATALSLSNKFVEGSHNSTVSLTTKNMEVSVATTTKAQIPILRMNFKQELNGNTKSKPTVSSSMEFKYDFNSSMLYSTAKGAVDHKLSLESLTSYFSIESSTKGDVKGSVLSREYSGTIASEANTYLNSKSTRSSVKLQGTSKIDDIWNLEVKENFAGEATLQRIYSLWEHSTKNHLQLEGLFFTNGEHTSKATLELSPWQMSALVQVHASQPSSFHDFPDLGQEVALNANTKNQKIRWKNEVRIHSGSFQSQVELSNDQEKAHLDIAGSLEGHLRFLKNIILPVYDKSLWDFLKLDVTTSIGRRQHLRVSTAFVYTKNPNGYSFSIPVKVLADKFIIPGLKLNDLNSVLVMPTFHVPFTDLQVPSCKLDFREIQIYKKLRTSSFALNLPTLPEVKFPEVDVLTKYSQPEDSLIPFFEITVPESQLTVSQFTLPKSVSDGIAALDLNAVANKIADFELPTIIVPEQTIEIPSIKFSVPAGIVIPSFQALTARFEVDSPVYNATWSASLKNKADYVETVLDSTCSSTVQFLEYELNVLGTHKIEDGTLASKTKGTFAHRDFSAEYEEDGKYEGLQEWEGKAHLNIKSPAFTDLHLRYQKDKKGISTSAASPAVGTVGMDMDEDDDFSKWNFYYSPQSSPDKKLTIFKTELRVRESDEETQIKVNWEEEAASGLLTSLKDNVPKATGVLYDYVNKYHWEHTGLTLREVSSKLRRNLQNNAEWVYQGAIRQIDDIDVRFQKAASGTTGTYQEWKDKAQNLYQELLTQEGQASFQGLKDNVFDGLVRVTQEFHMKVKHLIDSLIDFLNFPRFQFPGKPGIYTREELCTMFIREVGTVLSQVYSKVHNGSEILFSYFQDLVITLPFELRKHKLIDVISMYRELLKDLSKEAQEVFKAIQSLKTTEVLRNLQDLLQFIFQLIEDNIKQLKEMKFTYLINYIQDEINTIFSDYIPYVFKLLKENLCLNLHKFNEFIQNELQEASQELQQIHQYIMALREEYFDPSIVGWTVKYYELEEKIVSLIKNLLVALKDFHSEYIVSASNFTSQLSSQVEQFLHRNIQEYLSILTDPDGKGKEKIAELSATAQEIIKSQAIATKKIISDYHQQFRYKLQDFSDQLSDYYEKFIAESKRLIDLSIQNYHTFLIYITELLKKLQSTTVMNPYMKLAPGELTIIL
Protocol: Agarose electrophoresis is a technique used to separate and study lipoproteins. The monosuccinic acid ester of probucol was added to purified human LDL and the mixture was run on agarose electrophoresis.

HepG2 cells = experiment: Uptake of radioiodinated human LDL by HepG2 cells; type: cell-based; conditions: HepG2, 24 h
Protocol: In order to test whether the change in structure of LDL by the monosuccinic acid ester of probucol can affect the uptake of this lipoprotein by liver cells in vitro, purified human radioiodinated LDL was mixed with various concentrations of the probucol derivative and incubated for 15 minutes at room temperature. After that, the mixture of LDL and the probucol derivative was added to HepG2 cells in culture and the uptake of radiolabeled LDL measured after 24 h. At each concentration of compound, the specific uptake of LDL was also determined by examining LDL uptake in the presence of excess unlabeled LDL.

apoB-100 epitope in VLDL = biological target: T2, apoB-100 epitope in VLDL (Homo sapiens, UniProt P04114); experiment: Immunoreactivity sandwich ELISA with VLDL; type: binding; conditions: FIG. 6b
T2 construct: relative to the native VLDL; from tissue; host or cells: VLDL particles (plasma lipoprotein)
T2 sequence (P04114 28-4563): as above
Text: To determine if the binding of the monosuccinic acid ester to VLDL and LDL can cause a change in the structure of apoB-100, an immunoreactivity assay was designed. This is a sandwich ELISA assay which measures the expression of a specific epitope on apoB-100. Essentially the sandwich ELISA consists of a specific monoclonal antibody directed to that epitope on apoB-100 as a capture antibody laid onto a microtitre plate. LDL or VLDL added to the plate is bound to the antibody as a result of recognition of the specific epitope. A second polyclonal antibody is then used to quantify the amount of LDL captured.

total plasma cholesterol = experiment: Cholesterol lowering in mice lacking functional LDL receptors; type: in vivo, mouse; conditions: LDL receptor-deficient mice, 150 mg/kg/day oral with high fat/high cholesterol diet, 12 weeks
Protocol: To explore whether the enhanced clearance is mediated by the tissue LDL receptors, the major clearance mechanism for LDL in the body, the LDL lowering activity of the monosuccinic acid ester of probucol was tested in a mouse model that lacks functional LDL receptors (eliminated through genetic engineering).

[1] = rabbit, in vivo, po, 150 mg/kg/day
Protocol: To examine if the monosuccinic acid ester of probucol partitions with plasma circulating lipoproteins, rabbits were fed a high-fat diet for six weeks and dosed with the compound at a dose of 150 mg/Kg per day orally. The animals were bled at six weeks and plasma lipoproteins isolated at high-speed using ultra-centrifugation.
Whole plasma was fractionated by fast phase liquid chromatography (FPLC) using a Superose 6HR 10/30 column. Elution was performed in a phosphate-buffered saline solution containing 0.01% EDTA and 0.02% NaN3 at a flow rate of 0.3 m/min. Approximately 0.6 ml was collected for each fraction and 20 fractions were available for analysis. The cholesterol content of the peaks corresponding to low density lipoprotein (LDL) and high density lipoprotein (HDL) were compared to CDC reference methods. VLDL corresponds to fractions 4-8 (elution volumes 7.2-9.6), LDL to fractions 9-16 (elution volume 10.2-14.4) and HDL to fractions 17-23 (elution volume 15-18.6).
The monosuccinic acid ester of probucol (MSE) levels in the different lipoprotein fractions were determined by high pressure liquid chromatography (HPLC) using a Rainin C 18 column (830201-C). Fractions corresponding to the different lipoprotein fractions were pooled and dried down by centrifugation under vacuum and resuspended in 0.5 ml of phosphate buffered saline. MSE was extracted with 0.5 ml of ether. 100 ul of the ether solution was added to 400 ul of acetonitrile and 0.02 ml was loaded onto the column. The mobile phase was 75:20:5 acetonitrile, methanol, and 50 mM acetic acid in methanol.
The amount of the MSE bound to each of the lipoproteins was estimated.

[2] = biological target: T3, specific epitope on apoB-100 of LDL (Homo sapiens, UniProt P04114); experiment: Immunoreactivity cell-free sandwich ELISA: binding of LDL to capture anti-apoB monoclonal antibody
T3 construct: from tissue; host or cells: LDL particles (plasma lipoprotein)
T3 sequence (P04114 28-4563): as above
Text: To determine if the binding of the monosuccinic acid ester to VLDL and LDL can cause a change in the structure of apoB-100, an immunoreactivity assay was designed. This is a sandwich ELISA assay which measures the expression of a specific epitope on apoB-100. Essentially the sandwich ELISA consists of a specific monoclonal antibody directed to that epitope on apoB-100 as a capture antibody laid onto a microtitre plate. […] A second polyclonal antibody is then used to quantify the amount of LDL captured.
The detailed immunoreactivity protocol is as follows. A nunc maxi-sorp microtiter plate is coated overnight at 4° C. with 100 μl of Anti-Human ApoB monoclonal antibody from Boehringer Mannheim (catalog # 1533 975) diluted 1:1000 in PBS pH 7.4. The compounds are dissolved in DMSO with appropriate concentration of LDL for 15 minutes and incubated at 37° C.
The coated microtiter plate is washed three times with 200 μl PBS/0.05% tween, and a sample of 100 μl LDL/Compound or LDL standard is added to each well. The plates are then incubated for 2 hours at room temperature.
The microtiter plate is washed three times with 200 μl PBS/0.05% tween, and 100 μl of 1:2000 Polyclonal Human Anti-ApolipoproteinB from Boehringer Mannheim (catalog # 726 494) in PBS/tween 0.05% is added. The plate is incubated for one hour at room temperature.
The microtiter plate is washed three times with 200 ul PBS/0.05% tween, and 100 μl of 1:2000 Anti-Sheep Ig peroxidase from Boehringer Mannheim (catalog # 605 345) in PBS/05% tween is added. The plate is incubated for one hour at room temperature.
The microtiter plate is washed three times with 200 ul PBS/0.05% tween, and 100 μl of TMB substrate is added and incubated for 5-10 minutes in the dark. The reaction is stopped with 15 μl 8N H2SO4 and read on the Bio-Rad Microplate plate reader at 450 nm within 30 minutes.

VLDL and LDL clearance = experiment: Lipoprotein turnover study in monkeys (stable isotope labelling of apoB-100); type: in vivo, monkey; conditions: monkeys, 25 mg/kg/day
Protocol: A lipoprotein turnover study was performed in monkeys that were dosed with the monosuccinic acid ester of probucol (25 mg/kg/day for one four weeks). The clearance rates of VLDL and LDL were examined before and after treatment of the animals using a stable isotope technique to label apoB-100 in VLDL and LDL.

[3] = biological target: T4, other epitopes on LDL apoB-100 (Homo sapiens, UniProt P04114); experiment: Epitope specificity: four other monoclonal antibodies (1D, 2D8, 5E11, 4G3) against apoB-100 on LDL; type: binding
T4 construct: from tissue; host or cells: LDL particles (plasma lipoprotein)
T4 sequence (P04114 28-4563): as above
Text: The specificity of epitope expression changes by the monosuccinic acid ester of probucol were established by examining MSE's effects on other epitopes on LDL. This was probed by using four other monoclonal antibodies (1D, 2D8, 5E11, 4G3) in comparison to the Boehringer Mannheim (Band M) antibody used in the assays described above.

## CC(C)(Sc1cc(C(C)(C)C)c(O)c(C(C)(C)C)c1)Sc1cc(C(C)(C)C)c(OC(=O)CCC(=O)O)c(C(C)(C)C)c1 [MSE, Butanedioic acid, mono[4-[[1-[[3,5-bis(1,1-dimethylethyl)-4-hydroxyphenyl]thio]-1-methylethyl]thio]-2,6-bis(1,1-dimethylethyl)phenyl] ester]
Plasma cholesterol
  Hamster: yes
Purified human LDL
  shift of electrophoretic mobility of LDL: shifted the mobility of LDL
HepG2 cells; 18 uM
  increase of specific uptake of LDL relative to absence of MSE: 12.8%
HepG2 cells; 25.5 uM
  increase of specific uptake of LDL relative to absence of MSE: 77.6%
HepG2 cells; 33 uM
  increase of specific uptake of LDL relative to absence of MSE: 249%
apoB-100 epitope in VLDL
  increase of binding of VLDL apoB-100 epitope to the antibody relative to native VLDL: about 375%
Total plasma cholesterol
  effect on total plasma cholesterol levels: did not result in any significant effects
[1]
  MSE recovered in the different lipoprotein fractions: > 80%
  amount found in the non-lipoprotein plasma fraction: Very little
  distribution of MSE among lipoprotein fractions: most being found in the VLDL fraction, followed by LDL and some in IDL and HDL
[2]; 15 uM
  increase of binding of LDL to the capture monoclonal antibody: 300%
[2]; 30 uM
  increase of binding of LDL to the capture monoclonal antibody: 500%
[2]; FIG. 7
  epitope expression on LDL detected by the Boehringer Mannheim antibody: significantly enhanced
[2]; immunoreactivity cell-free assay of Example 3, yes/no
  Cell-Free Assay: yes
VLDL and LDL clearance
  LDL clearance rates: increased
  clearance of VLDL after treatment relative to before dosing: marked enhancement
  production of VLDL or LDL: no apparent effects
[3]
  expression of epitopes detected by the other four antibodies against apoB-100: unaffected
